Experimental data published in patent publication US10494363B2, “Non-steroidal glucocorticoid receptor modulators for local drug delivery” (LEO PHARMA A/S, priority 2015, dated 2019).

Assays:
[1] = molecular target: T1, glucocorticoid receptor (GR), recombinant full-length receptor protein (Homo sapiens, UniProt P04150); experiment: Glucocorticoid receptor binding assay (fluorescence polarization kit); conditions: 4 nM receptor, 2.5 nM Fluormone GS1 tracer, 2h room temperature, read-out: GR binding ABS IC50
T1 construct: 4 nM recombinant, full-length receptor protein was incubated with increasing concentrations of GR ligand; purchased Life Technologies A-15897
T1 sequence (P04150 1-777): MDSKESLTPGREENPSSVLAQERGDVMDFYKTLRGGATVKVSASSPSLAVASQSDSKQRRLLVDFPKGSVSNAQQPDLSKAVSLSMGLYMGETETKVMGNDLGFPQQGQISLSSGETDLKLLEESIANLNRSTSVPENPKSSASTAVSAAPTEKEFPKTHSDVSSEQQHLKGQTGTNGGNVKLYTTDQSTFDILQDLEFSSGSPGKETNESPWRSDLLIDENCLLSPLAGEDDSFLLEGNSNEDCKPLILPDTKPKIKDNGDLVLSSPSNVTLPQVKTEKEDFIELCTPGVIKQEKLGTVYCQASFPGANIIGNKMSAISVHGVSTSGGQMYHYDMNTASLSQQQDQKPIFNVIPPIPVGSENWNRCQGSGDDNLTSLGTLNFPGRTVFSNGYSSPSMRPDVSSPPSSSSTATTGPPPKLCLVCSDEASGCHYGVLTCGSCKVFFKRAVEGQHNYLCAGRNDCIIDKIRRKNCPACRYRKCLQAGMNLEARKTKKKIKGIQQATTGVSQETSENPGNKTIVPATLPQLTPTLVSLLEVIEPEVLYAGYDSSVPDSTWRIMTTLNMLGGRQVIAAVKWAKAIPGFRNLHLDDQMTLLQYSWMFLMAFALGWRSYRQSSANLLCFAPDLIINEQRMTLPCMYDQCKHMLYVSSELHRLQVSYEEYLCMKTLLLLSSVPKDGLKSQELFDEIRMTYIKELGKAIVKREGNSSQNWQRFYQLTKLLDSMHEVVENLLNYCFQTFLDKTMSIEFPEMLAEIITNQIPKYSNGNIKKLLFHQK
Experimental: Test compounds were diluted in DMSO over seven orders of magnitude, further diluted in assay buffer and distributed into 384-well plates. The sensitivity limit of this assay was 2-4 nM.
Data were processed by sigmoidal curve fitting.
Absolute (Abs) IC50 and Emax were determined from the curve fits.

[2] = test system: TNF alpha release from human PBMCs; experiment: Inhibition of TNF alpha release from human PBMCs; format: cell-based; conditions: PBMC, LPS 1 μg/ml, 18 hours, AlphaLISA
Experimental: PBMC were isolated from fresh buffy coats by density centrifugation using lymphoprep (Medinor AB, cat no 1019818) tubes. Isolated PBMCs were washed in assay medium (RPMI1640 with 25 mM HEPES, 1% pen/strep, 200 mM L glutamine and 10% Foetal calf serum). Surplus PBMCs were frozen in medium containing extra 10% foetal calf serum and 5% DMSO. On the assay day, fresh cells or cryopreserved cells after thawing were washed in serum free medium (RPMI1640 with 25 mM HEPES, 1% pen/strep, 200 mM L glutamine and 0.5% human serum albumin) and counted, in order to determine the fraction of living cells (generally >95%).
Test compounds were diluted in DMSO over seven orders of magnitude, further diluted in serum-free medium and distributed into wells of 384 well tissue culture plates. LPS was added to a final concentration of 1 μg/ml to the cells. Immediately thereafter titrated test compounds were added and incubated for 18 hours at 37° C.
The level of TNF-a in the culture supernatant was quantitated by AlphaLISA (Perkin Elmer). 2-(3,5-dichloro-4-pyridinyl)-1-(7-methoxyspiro[1,3-benzodioxole-2,1′-cyclopentan]-4-yl)-ethanone (CAS 185406-34-2) at 100×IC50 was used to define the assay window.
Data were processed by sigmoidal curve fitting. EC50 and Emax were determined from the curve fits.

[3] = Human liver microsomes (HLM) assay; format: in vitro ADME; conditions: hepatic extraction ratio; 0.5 μM compound, 0.5 mg/mL microsomes, NADPH, 37° C.
Experimental: Incubations of test compounds in DMSO, diluted with phosphate buffer, pH 7.4, at 0.5 μM were carried out with human liver microsomes (0.5 mg/mL). The percentage of organic solvent in the incubations was 1%. The human liver microsomal suspension in phosphate buffer was mixed with NADPH (1 mM) and preheated to 37° C. before test compound was added. Aliquots were taken at 0, 5, 10, 20 and 30 minutes, and reactions were terminated by addition of methanol containing analytical internal standard (IS).
The results were expressed as apparent clearance (Clapp) (mL/min/kg) and hepatic extraction ratio (Eh) (%) calculated from the rate constant (k) (min^−1) of test compound depletion.

SMILES | IC50 [1] [nM] | HLM assay Eh (%) [3] | EC50 [2] [nM]
C[C@H](NC(=O)C(C)(F)F)[C@H](Oc1ccc(C(=O)N[C@H]2CCCN(C(=O)[C@H]3COC(=O)C3)C2)nc1)c1ccc(C2CC2)cc1 [Compound 3, 5-[(1R,2S)-1-(4-cyclopropylphenyl)-2-(2,2-difluoropropanoylamino)propoxy]-N-[(3S)-1-[(3R)-5-oxotetrahydrofuran-3-carbonyl]-3-piperidyl]pyridine-2-carboxamide] | < 100 | * (extraction ratio (Eh)>90%) | < 100
C[C@H](NC(=O)c1ccsn1)[C@H](Oc1ccc(C(=O)N[C@H]2CCCN(C(=O)[C@H]3COC(=O)C3)C2)nc1)c1ccc(C2CC2)cc1 [Compound 4, N-[(1S,2R)-2-(4-cyclopropylphenyl)-1-methyl-2-[[6-[[(3S)-1-[(3R)-5-oxotetrahydrofuran-3-carbonyl]-3-piperidyl]carbamoyl]-3-pyridyl]oxy]ethyl]isothiazole-3-carboxamide] | < 100 | * (extraction ratio (Eh)>90%) | < 100
C[C@H](NC(=O)c1ccns1)[C@H](Oc1ccc(C(=O)N[C@H]2CCCN(C(=O)[C@H]3COC(=O)C3)C2)nc1)c1ccc(C2CC2)cc1 [Compound 5, N-[(1S,2R)-2-(4-cyclopropylphenyl)-1-methyl-2-[[6-[[(3S)-1-[(3R)-5-oxotetrahydrofuran-3-carbonyl]-3-piperidyl]carbamoyl]-3-pyridyl]oxy]ethyl]isothiazole-5-carboxamide] | < 100 | * (extraction ratio (Eh)>90%) | < 100
C[C@H](NC(=O)c1ncco1)[C@H](Oc1ccc(C(=O)N[C@H]2CCCN(C(=O)[C@H]3COC(=O)C3)C2)nc1)c1ccc(C2CC2)cc1 [Compound 6, N-[(1S,2R)-2-(4-cyclopropylphenyl)-1-methyl-2-[[6-[[(3S)-1-[(3R)-5-oxotetrahydrofuran-3-carbonyl]-3-piperidyl]carbamoyl]-3-pyridyl]oxy]ethyl]oxazole-2-carboxamide] | < 100 | * (extraction ratio (Eh)>90%) | < 100
C[C@H](NC(=O)c1cnco1)[C@H](Oc1ccc(C(=O)N[C@H]2CCCN(C(=O)[C@H]3COC(=O)C3)C2)nc1)c1ccc(C2CC2)cc1 [Compound 9, N-[(1S,2R)-2-(4-cyclopropylphenyl)-1-methyl-2-[[6-[[(3S)-1-[(3R)-5-oxotetrahydrofuran-3-carbonyl]-3-piperidyl]carbamoyl]-3-pyridyl]oxy]ethyl]oxazole-5-carboxamide] | 100 to 300 | * (extraction ratio (Eh)>90%) | < 100
C[C@H](NC(=O)c1ccno1)[C@H](Oc1ccc(C(=O)N[C@H]2CCCN(C(=O)[C@H]3COC(=O)C3)C2)nc1)c1ccc(C2CC2)cc1 [Compound 12, N-[(1S,2R)-2-(4-cyclopropylphenyl)-1-methyl-2-[[6-[[(3S)-1-[(3R)-5-oxotetrahydrofuran-3-carbonyl]-3-piperidyl]carbamoyl]-3-pyridyl]oxy]ethyl]isoxazole-5-carboxamide] | < 100 | * (extraction ratio (Eh)>90%) | < 100
C[C@H](NC(=O)CCO)[C@H](Oc1ccc(C(=O)N[C@H]2CCCN(C(=O)[C@H]3COC(=O)C3)C2)nc1)c1ccc(C2CC2)cc1 [Compound 16, 5-[(1R,2S)-1-(4-cyclopropylphenyl)-2-(3-hydroxypropanoylamino)propoxy]-N-[(3S)-1-[(3R)-5-oxotetrahydrofuran-3-carbonyl]-3-piperidyl]pyridine-2-carboxamide] | > 300 | * (extraction ratio (Eh)>90%) | < 100

Continued, in another order:

IC50 [1] [nM] | HLM assay Eh (%) [3] | SMILES | EC50 [2] [nM]
< 100 | * (extraction ratio (Eh)>90%) | C[C@H](NC(=O)c1cscn1)[C@H](Oc1ccc(C(=O)N[C@H]2CCCN(C(=O)[C@H]3COC(=O)C3)C2)nc1)c1ccc(C2CC2)cc1 [Compound 7, N-[(1S,2R)-2-(4-cyclopropylphenyl)-1-methyl-2-[[6-[[(3S)-1-[(3R)-5-oxotetrahydrofuran-3-carbonyl]-3-piperidyl]carbamoyl]-3-pyridyl]oxy]ethyl]thiazole-4-carboxamide] | < 100
< 100 | * (extraction ratio (Eh)>90%) | Cc1cc(C(=O)N[C@@H](C)[C@H](Oc2ccc(C(=O)N[C@H]3CCCN(C(=O)[C@H]4COC(=O)C4)C3)nc2)c2ccc(C3CC3)cc2)on1 [Compound 8, N-[(1S,2R)-2-(4-cyclopropylphenyl)-1-methyl-2-[[6-[[(3S)-1-[(3R)-5-oxotetrahydrofuran-3-carbonyl]-3-piperidyl]carbamoyl]-3-pyridyl]oxy]ethyl]-3-methylisoxazole-5-carboxamide] | < 100
100 to 300 | * (extraction ratio (Eh)>90%) | CC[C@H](O)C(=O)N[C@@H](C)[C@H](Oc1ccc(C(=O)N[C@H]2CCCN(C(=O)[C@H]3COC(=O)C3)C2)nc1)c1ccc(C2CC2)cc1 [Compound 10, 5-[(1R,2S)-1-(4-cyclopropylphenyl)-2-[[(2S)-2-hydroxybutanoyl]amino]propoxy]-N-[(3S)-1-[(3R)-5-oxotetrahydrofuran-3-carbonyl]-3-piperidyl]pyridine-2-carboxamide] | < 100
> 300 | * (extraction ratio (Eh)>90%) | C[C@H](NC(=O)[C@@H](C)O)[C@H](Oc1ccc(C(=O)N[C@H]2CCCN(C(=O)[C@H]3COC(=O)C3)C2)nc1)c1ccc(C2CC2)cc1 [Compound 11, 5-[(1R,2S)-1-(4-cyclopropylphenyl)-2-[[(2R)-2-hydroxypropanoyl]amino]propoxy]-N-[(3S)-1-[(3R)-5-oxotetrahydrofuran-3-carbonyl]-3-piperidyl]pyridine-2-carboxamide] | < 100
100 to 300 | * (extraction ratio (Eh)>90%) | CC[C@@H](O)C(=O)N[C@@H](C)[C@H](Oc1ccc(C(=O)N[C@H]2CCCN(C(=O)[C@H]3COC(=O)C3)C2)nc1)c1ccc(C2CC2)cc1 [Compound 13, 5-[(1R,2S)-1-(4-cyclopropylphenyl)-2-[[(2R)-2-hydroxybutanoyl]amino]propoxy]-N-[(3S)-1-[(3R)-5-oxotetrahydrofuran-3-carbonyl]-3-piperidyl]pyridine-2-carboxamide] | < 100
100 to 300 | * (extraction ratio (Eh)>90%) | COCC(=O)N[C@@H](C)[C@H](Oc1ccc(C(=O)N[C@H]2CCCN(C(=O)[C@H]3COC(=O)C3)C2)nc1)c1ccc(C2CC2)cc1 [Compound 14, 5-[(1R,2S)-1-(4-cyclopropylphenyl)-2-[(2-methoxyacetyl)amino]propoxy]-N-[(3S)-1-[(3R)-5-oxotetrahydrofuran-3-carbonyl]-3-piperidyl]pyridine-2-carboxamide] | < 100
> 300 | ** (50%<extraction ratio (Eh)<90%) | C[C@H](NC(=O)C(C)(C)O)[C@H](Oc1ccc(C(=O)N[C@H]2CCCN(C(=O)[C@H]3COC(=O)C3)C2)nc1)c1ccc(C2CC2)cc1 [Compound 15, 5-[(1R,2S)-1-(4-cyclopropylphenyl)-2-[(2-hydroxy-2-methyl-propanoyl)amino]propoxy]-N-[(3S)-1-[(3R)-5-oxotetrahydrofuran-3-carbonyl]-3-piperidyl]pyridine-2-carboxamide] | < 100
